# According to patent US11634391B2, “Compounds which are inhibitors of Notum” (UCL BUSINESS LTD, priority 2018, dated 2023):
# Where a name gives a salt, the structure may show the parent alone.
# Biological target: notum carboxyesterase enzyme (Homo sapiens (Human), UniProt Q6P988)
# Assay: Biochemical Notum Enzymatic Activity Assay (OPTS substrate, fluorescence)
# Conditions: 2 μM OPTS solution, 2.38 nM notum enzyme solution, 1 hour incubation at room temperature, fluorescence ex 485 nm / em 520 nm; n≥2
# From the text: Plate layout and measured fluorescence values were input into Dotmatics Studies data management tool.
# notum carboxyesterase enzyme, sequence (Q6P988 20-496): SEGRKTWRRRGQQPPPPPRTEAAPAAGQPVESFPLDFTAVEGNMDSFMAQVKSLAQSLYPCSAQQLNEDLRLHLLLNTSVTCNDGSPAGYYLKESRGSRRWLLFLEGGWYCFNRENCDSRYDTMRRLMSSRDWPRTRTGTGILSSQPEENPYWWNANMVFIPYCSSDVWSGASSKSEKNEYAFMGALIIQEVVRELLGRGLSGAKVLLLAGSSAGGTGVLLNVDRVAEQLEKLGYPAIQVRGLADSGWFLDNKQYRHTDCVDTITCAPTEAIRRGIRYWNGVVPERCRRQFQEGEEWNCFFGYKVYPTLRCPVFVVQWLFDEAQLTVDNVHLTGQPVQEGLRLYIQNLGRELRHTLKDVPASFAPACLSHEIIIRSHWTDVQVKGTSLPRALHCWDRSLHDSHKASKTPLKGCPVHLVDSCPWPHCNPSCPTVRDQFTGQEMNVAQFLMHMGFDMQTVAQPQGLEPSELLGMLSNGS
row,IC50 [µM],Compound
1,8.82,"NCc1cn(-c2ccc(Cl)c(Cl)c2)nn1 [Compound 31, (1-(3,4-dichlorophenyl)-1H-1,2,3-triazol-4-yl)methanamine]"
2,6.61,"COc1cc(-n2cc(CO)nn2)ccc1Cl [Compound 30, (1-(4-chloro-3-methoxyphenyl)-1H-1,2,3-triazol-4-yl)methanol]"
3,43.5,"Oc1nnc(-c2ccc(C3CC3)nc2)o1 [Compound 209, 5-(6-cyclopropyl-3-pyridyl)-1,3,4-oxadiazol-2-ol]"
4,37.3,"OCc1cn(-c2ccc3c(c2)OCO3)nn1 [Compound 4, (1-(benzo[d][1,3]dioxol-5-yl)-1H-1,2,3-triazol-4-yl)methanol]"
5,0.0194,"FC(F)(F)c1cc(-c2c[nH]nn2)ccc1Cl [Compound 50, 4-(4-chloro-3-(trifluoromethyl)phenyl)-1H-1,2,3-triazole]"
6,6.77,"OCc1cn(-c2cccc(Cl)c2Cl)nn1 [Compound 7, (1-(2,3-dichlorophenyl)-1H-1,2,3-triazol-4-yl)methanol]"
7,52.5,"OCc1cn(-c2ccc3nccnc3c2)nn1 [Compound 12, (1-(quinoxalin-6-yl)-1H-1,2,3-triazol-4-yl)methanol]"
8,1.06,"OCc1cn(-c2ccc(Cl)c(C3CC3)c2)nn1 [Compound 276, (1-(4-chloro-3-cyclopropylphenyl)-1H-1,2,3-triazol-4-yl)methanol]"
9,0.0993,"FC(F)(F)c1cc(-n2ccnn2)ccc1Cl [Compound 175, 1-[4-chloro-3-(trifluoromethyl)phenyl]triazole]"
10,5.04,"COCc1cn(-c2ccc(Cl)c(Cl)c2)nn1 [Compound 43, 1-(3,4-dichlorophenyl)-4-(methoxymethyl)-1H-1,2,3-triazole]"
11,0.697,"OCc1cn(-c2ccc(Cl)c(OC(F)(F)F)c2)nn1 [Compound 270, (1-(4-chloro-3-(trifluoromethoxy)phenyl)-1H-1,2,3-triazol-4-yl)methanol]"
12,> 10,"OCc1cc(-c2ccc(Cl)cc2)[nH]n1 [Compound 171, [5-(4-chlorophenyl)-1H-pyrazol-3-yl]methanol]"
13,36.8,"OCc1cn(-c2cccc3ccccc23)nn1 [Compound 25, (1-(naphthalen-1-yl)-1H-1,2,3-triazol-4-yl)methanol]"
14,> 10,"CC(O)c1cn(-c2ccc(Cl)c(Cl)c2)nn1 (stereo not shown) [Compound 40, 1-(1-(3,4-dichlorophenyl)-1H-1,2,3-triazol-4-yl)ethan-1-ol]"
15,0.81,"Cc1ccc(-n2cc(CO)nn2)cc1C [Compound 5, (1-(3,4-dimethylphenyl)-1H-1,2,3-triazol-4-yl)methanol]"
16,0.149,"OCCc1cn(-c2ccc(Cl)c(C(F)(F)F)c2)nn1 [Compound 303, 2-[1-[4-chloro-3-(trifluoromethyl)phenyl]triazol-4-yl]ethanol]"
17,19.5,"CC(=O)NCc1cn(-c2ccc(Cl)c(Cl)c2)nn1 [Compound 42, N-((1-(3,4-dichlorophenyl)-1H-1,2,3-triazol-4-yl)methyl)acetamide]"
18,> 10,"OCc1cn(-c2ccc(Cl)c(OCC3CC3)c2)nn1 [Compound 18, (1-(4-chloro-3-(cyclopropylmethoxy)phenyl)-1H-1,2,3-triazol-4-yl)methanol]"
19,74.5,"CN(C)Cc1cn(-c2ccc(Cl)c(Cl)c2)nn1 [Compound 44, 1-(1-(3,4-dichlorophenyl)-1H-1,2,3-triazol-4-yl)-N,N-dimethylmethanamine hydrochloride]"
20,1.72,"OCc1cn(-c2ccc(C(F)(F)F)c(Cl)c2)nn1 [Compound 13, (1-(3-chloro-4-(trifluoromethyl)phenyl)-1H-1,2,3-triazol-4-yl)methanol]"
21,37.5,"NCc1cn(-c2cccc(C(F)(F)F)c2)nn1 [Compound 38, (1-(3-(trifluoromethyl)phenyl)-1H-1,2,3-triazol-4-yl)methanamine hydrochloride]"
22,2.23,"OCc1cn(-c2cccc(C(F)(F)F)c2)nn1 [Compound 275, (1-(3-(trifluoromethyl)phenyl)-1H-1,2,3-triazol-4-yl)methanol]"
23,25.5,"OCc1cn(-c2cc(Cl)ccc2Cl)nn1 [Compound 26, (1-(2,5-dichlorophenyl)-1H-1,2,3-triazol-4-yl)methanol]"
24,0.484,"OCc1cn(-c2ccc(Cl)c(Cl)c2)nn1 [Compound 19, (1-(3,4-dichlorophenyl)-1H-1,2,3-triazol-4-yl)methanol]"
25,0.0303,"O=C(O)c1cn(-c2ccc(Cl)c(C(F)(F)F)c2Cl)nn1 [Compound 304, 1-[2,4-dichloro-3-(trifluoromethyl)phenyl]triazole-4-carboxylic acid]"
26,5.1,"Clc1ccc(-c2cc[nH]n2)cc1Cl [Compound 55, 3-(3,4-dichlorophenyl)-1H-pyrazole]"
27,26.9,"Clc1ccc(-n2cnnn2)cc1 [Compound 216, 1-(4-chlorophenyl)tetrazole]"
28,86.1,"Cn1ncc2ccc(-n3cc(CO)nn3)cc21 [Compound 15, (1-(1-methyl-1H-indazol-6-yl)-1H-1,2,3-triazol-4-yl)methanol]"
29,0.248,"FC1CN(c2cc(-n3ccnn3)ccc2C(F)(F)F)C1 [Compound 288, 1-(3-(3-fluoroazetidin-1-yl)-4-(trifluoromethyl)phenyl)-1H-1,2,3-triazole]"

# Further lines, the compound ahead of its results:
row,Compound,IC50 [µM]
1,"Oc1c(F)cc(F)cc1-c1cc[nH]n1 [Compound 52, 2,4-difluoro-6-(1H-pyrazol-3-yl)phenol]",3.27
2,"Nc1nnc(-c2ccccc2)o1 [Compound 137, 5-phenyl-1,3,4-oxadiazol-2-amine]",33
3,"Cc1ccc(-c2csnn2)cc1 [Compound 145, 4-(p-tolyl)-1,2,3-thiadiazole]",3.47
4,"FC(F)(F)c1c(Cl)cnc(-n2ccnn2)c1Cl [Compound 307, 3,5-dichloro-2-(triazol-1-yl)-4-(trifluoromethyl)pyridine]",0.0081
5,"NCc1nc(-c2ccc(Cl)cc2)no1 [Compound 152, [3-(4-chlorophenyl)-1,2,4-oxadiazol-5-yl]methanamine]",43.1
6,"Fc1cc(F)cc(-c2cc[nH]n2)c1 [Compound 56, 3-(3,5-difluorophenyl)-1H-pyrazole]",23
7,"FC(F)(F)c1ccc(-c2c[nH]nn2)cc1C(F)(F)F [Compound 49, 4-(3,4-bis(trifluoromethyl)phenyl)-1H-1,2,3-triazole]",0.008
8,"Clc1cccc(-c2cc[nH]n2)c1 [Compound 54, 3-(3-chlorophenyl)-1H-pyrazole]",17.7
9,"Oc1nnc(-c2cccc(C(F)(F)F)n2)o1 [Compound 206, 5-[6-(trifluoromethyl)-2-pyridyl]-1,3,4-oxadiazol-2-ol]",> 23.1
10,"c1nnc(-c2ccc(C3CC3)nc2)o1 [Compound 226, 2-(6-cyclopropyl-3-pyridyl)-1,3,4-oxadiazole]",42.2
11,"Cn1nc(-c2ccc(Cl)c(C(F)(F)F)c2Cl)oc1=O [Compound 245, 5-(2,4-dichloro-3-(trifluoromethyl)phenyl)-3-methyl-1,3,4-oxadiazol-2(3H)-one]",0.067
12,"c1ccc(-n2cnnn2)cc1 [Compound 134, 1-phenyl-1H-tetrazole]",19.4
13,"N#CNc1nnc(-c2ccc(Cl)c(C(F)(F)F)c2Cl)o1 [Compound 246, N-(5-(2,4-dichloro-3-(trifluoromethyl)phenyl)-1,3,4-oxadiazol-2-yl)cyanamide, ammonia salt]",0.0073
14,"NCc1nnc(-c2ccccc2)o1 [Compound 140, (5-phenyl-1,3,4-oxadiazol-2-yl)methanamine]",2.94
15,"Nc1nnc(-c2ccc(Cl)cc2)o1 [Compound 156, 2-amino-5-(4-chlorophenyl)-1,3,4-oxadiazole]",11.9
16,"FC(F)(F)c1ccc(-c2nnc(S)o2)cc1C1CC1 [Compound 187, 5-[3-cyclopropyl-4-(trifluoromethyl)phenyl]-1,3,4-oxadiazole-2-thiol]",0.426
17,"CN1CC(C)(C)c2cc(-c3nnc(O)o3)ccc21 [Compound 180, 5-(1,3,3-trimethylindolin-5-yl)-1,3,4-oxadiazol-2-ol]",0.0344
18,"FC(F)(F)c1cccc(-c2nnco2)n1 [Compound 221, 2-[6-(trifluoromethyl)-2-pyridyl]-1,3,4-oxadiazole]",82.5
19,"Cn1nc(-c2ccc(Cl)cc2)oc1=O [Compound 229, 5-(4-chlorophenyl)-3-methyl-1,3,4-oxadiazol-2(3H)-one]",26.1
20,"Nc1nc(-c2ccccc2)no1 [Compound 141, 3-phenyl-1,2,4-oxadiazol-5-amine]",70.6
21,"Cc1ccc(-c2nnc(O)o2)cc1OC(F)(F)F [Compound 79, 5-(4-methyl-3-(trifluoromethoxy)phenyl)-1,3,4-oxadiazol-2-ol]",0.036
22,"O=c1cc(-c2ccccc2)cc[nH]1 [Compound 236, 4-phenylpyridin-2(1H)-one]",14.1
23,"Cc1nnc(-c2ccc(C3CC3)c(C(F)(F)F)c2)o1 [Compound 190, 2-[4-cyclopropyl-3-(trifluoromethyl)phenyl]-5-methyl-1,3,4-oxadiazole]",0.0887
24,"FC(F)(F)c1cc(-c2nnn[nH]2)ccc1Cl [Compound 212, 5-[4-chloro-3-(trifluoromethyl)phenyl]-1H-tetrazole]",21
25,"CN(C)c1nnc(-c2ccc(Cl)c(C(F)(F)F)c2Cl)o1 [Compound 247, 5-(2,4-dichloro-3-(trifluoromethyl)phenyl)-N,N-dimethyl-1,3,4-oxadiazol-2-amine]",0.439
26,"Cc1cc(C)cc(-n2cnnn2)c1 [Compound 194, 1-(3,5-dimethylphenyl)tetrazole]",3.22
27,"[2H]C([2H])([2H])Oc1nnc(-c2ccc(Cl)c(C(F)(F)F)c2Cl)o1 [Compound 241, 2-(2,4-dichloro-3-(trifluoromethyl)phenyl)-5-(methoxy-d3)-1,3,4-oxadiazole]",0.0036
28,"N#CCn1nc(-c2ccc(Cl)c(C(F)(F)F)c2Cl)oc1=O [Compound 244, 2-(5-(2,4-dichloro-3-(trifluoromethyl)phenyl)-2-oxo-1,3,4-oxadiazol-3(2H)-yl)acetonitrile]",0.411
29,"Clc1ccc(-c2nnco2)cn1 [Compound 124, 2-(6-chloropyridin-3-yl)-1,3,4-oxadiazole]",13
